Read-outs that look alike come from different tables or passages of the source.
Tests used:
[1] = tested on: MOLM14 F691L cells; experiment: MOLM14 F691L cell viability assay (Cell Titer Glo); format: cell-based
Method: Both cell lines have activated FLT3 receptors, each of which carry additional resistance mutations in the kinase domain (D835Y and F691L, respectively).
MOLM14 D835Y and MOLM14 F691L cells were grown in RPMI-1640 media supplemented with 20% fetal bovine serum (FBS). For viability/cytotoxicity assessments, cells were seeded into 1536-well white polystyrene tissue culture-treated Greiner plates using a Multidrop Combi dispenser (ThermoFisher), in final volume 5 μL of growth media per well, at a density of 1000 cells per well. After cell addition, 23 nL of test compound were transferred into individual wells (22 doses tested for each test compound, with a 1:2 dilution series starting at 10 μM) via a 1536 pin-tool. Bortezomib (final concentration 2.3 μM) was used as a positive control for cell cytotoxicity. Plates were incubated for 48 hours at standard incubator conditions covered by a stainless steel gasketed lid to prevent evaporation. 48 hours post compound addition, 3 μL of Cell Titer Glo (Promega) were added to each well and plates were incubated at room temperature for 15 minutes with the stainless-steel lid in place. Luminescence readings were taken using a Viewlux imager (PerkinElmer) with a 2 second exposure time per plate.

[2] = tested on: THP-1-Blue NF-κB cells; experiment: NF-kB SEAP reporter assay in THP-1-Blue NF-κB cells; format: cell-based; settings: 24 hours
Method: THP-1-Blue NF-κB cells (InvivoGen) carrying a stable integrated NF-κB-inducible secreted embryonic alkaline phosphatase (SEAP) reporter construct were plated at a concentration of 1×10^5 cells per well. The cells were stimulated with Pam3CSK4 (1 ng/mL) or hIL1B (1 ng/mL). After 10-20 minutes, the cells were then treated with vehicle (DMSO) or serial dilutions of the test compounds (10 doses tested for each test compound, with a 1:10 dilution series starting at 1 μM or 3 μM) with a final volume of 200 μL for 24 hours at 37° C. After 24 hours, the cells were centrifuged and 20 μL supernatant was incubated with 180 μL QUANTI-Blue reagent at 37° C. for 30-60 minutes. The levels of NF-κB-induced gene expression were measured in a microplate reader at 620 nm.

[3] = biological target: T1, FLT3 (Homo sapiens, UniProt P36888); experiment: RBC HotSpot Kinase Assay, FLT3; format: biochemical
T1 construct: purchased Reaction Biology (RBC HotSpot Kinase Assay)
T1 sequence (P36888 564-958 limits assumed): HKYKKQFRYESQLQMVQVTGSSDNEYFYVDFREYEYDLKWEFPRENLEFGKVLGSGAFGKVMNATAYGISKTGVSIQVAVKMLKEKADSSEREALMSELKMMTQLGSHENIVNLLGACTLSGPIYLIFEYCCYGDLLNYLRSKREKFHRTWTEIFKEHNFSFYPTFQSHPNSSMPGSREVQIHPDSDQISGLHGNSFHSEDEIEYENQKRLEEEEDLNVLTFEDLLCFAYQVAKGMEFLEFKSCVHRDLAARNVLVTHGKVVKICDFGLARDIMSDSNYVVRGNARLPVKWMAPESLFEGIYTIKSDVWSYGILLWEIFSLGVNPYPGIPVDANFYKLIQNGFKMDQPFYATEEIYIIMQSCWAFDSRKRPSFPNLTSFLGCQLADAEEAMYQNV
In short: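 Radiometric filter-binding (HotSpot) activity assay on isolated recombinant kinase, possibly truncated or catalytic domain only, in 20 mM Hepes pH 7.5, 10 mM MgCl2, 1 mM EGTA, 2 mM DTT, 1% DMSO. Compound preincubated 20 min with kinase and substrate, then ^33P-ATP added. Reaction 2 h at room temperature, read by P81 filter binding.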

[4] = stimulated with Pam3CSK4 (1 ng/mL), read-out: NF-κB Pam3SCK4 IC50
[5] = stimulated with hIL1B (1 ng/mL), read-out: NF-κB IL1B IC50

| SMILES | IC50 ([1]; Homo sapiens, MOLM-14, 48 h) [µM] | IC50 [2, 4] [µM] | IC50 [2, 5] [µM] | IC50 [3] [µM] | IC50 ([1]; 48 hours) [µM] |
| --- | --- | --- | --- | --- | --- |
| COc1cc2ncc(-c3cccc(N[C@H]4CNCC[C@@H]4F)n3)n2nc1C1CC1 [Compound 102, 6-(6-cyclopropyl-7-methoxyimidazo[1,2-b]pyridazin-3-yl)-N-((3S,4S)-4-fluoropiperidin-3-yl)pyridin-2-amine] | 0.388 | 0.135 | 0.254 | < 0.0005 | – |
| COc1cc2ncc(-c3nc(N[C@H]4CNCC[C@@H]4F)c(F)cc3F)n2nc1C(C)(C)O [Compound 128, 2-(3-(3,5-difluoro-6-(((3S,4S)-4-fluoropiperidin-3-yl)amino)pyridin-2-yl)-7-methoxyimidazo[1,2-b]pyridazin-6-yl)propan-2-ol] | 0.386 | 0.108 | 0.196 | < 0.0005 | – |
| COc1cc2ncc(-c3cccc(N[C@@H]4CCNC4)n3)n2nc1C1CC1 [Compound 97, (R)-6-(6-cyclopropyl-7-methoxyimidazo[1,2-b]pyridazin-3-yl)-N-(pyrrolidin-3-yl)pyridin-2-amine] | – | – | – | 0.0006 | – |
| COc1cc2ncc(-c3cccc(N[C@H]4CNC[C@@H]4F)n3)n2nc1C1CC1 [Compound 96, 6-(6-cyclopropyl-7-methoxyimidazo[1,2-b]pyridazin-3-yl)-N-((3S,4S)-4-fluoropyrrolidin-3-yl)pyridin-2-amine] | 0.673 | 0.093 | 0.121 | 0.0006 | – |
| COc1cc2ncc(-c3nc(N[C@H]4CNCC[C@@H]4F)c(F)cc3F)n2nc1C1CC1 [Compound 108, 6-(6-cyclopropyl-7-methoxyimidazo[1,2-b]pyridazin-3-yl)-3,5-difluoro-N-((3S,4S)-4-fluoropiperidin-3-yl)pyridin-2-amine] | 0.029 | 0.03 | 0.013 | < 0.0005 | – |
| COc1cc2ncc(-c3nc(N[C@@H]4CCCNC4)c(F)cc3F)n2nc1C1CC1 [Compound 106, (R)-6-(6-cyclopropyl-7-methoxyimidazo[1,2-b]pyridazin-3-yl)-3,5-difluoro-N-(piperidin-3-yl)pyridin-2-amine] | 0.029 | 0.063 | 0.059 | < 0.0005 | – |
| COc1cc2ncc(-c3cccc(N[C@H]4CNC[C@@H]4F)n3)n2nc1C(C)(O)C(F)(F)F (single isomer, unassigned; fast-eluting) [Compound 133] | – | – | – | < 0.0005 | 0.969 |
| F[C@H]1CNC[C@@H]1Nc1cccc(-c2cnc3ccc(-c4cnn5ccccc45)nn23)n1 [Compound 9, N-((3S,4S)-4-fluoropyrrolidin-3-yl)-6-(6-(pyrazolo[1,5-a]pyridin-3-yl)imidazo[1,2-b]pyridazin-3-yl)pyridin-2-amine] | – | – | – | < 0.0005 | – |
| c1cc(N[C@@H]2CCCNC2)nc(-c2cnc3ccc(-c4cnn5ccccc45)nn23)c1 [Compound 19, (R)-N-(piperidin-3-yl)-6-(6-(pyrazolo[1,5-a]pyridin-3-yl)imidazo[1,2-b]pyridazin-3-yl)pyridin-2-amine] | – | – | – | < 0.0005 | – |
| COc1cc2ncc(-c3nc(N[C@H]4CNC[C@@H]4F)c(F)cc3F)n2nc1C1CC1 [Compound 107, 6-(6-cyclopropyl-7-methoxyimidazo[1,2-b]pyridazin-3-yl)-3,5-difluoro-N-((3S,4S)-4-fluoropyrrolidin-3-yl)pyridin-2-amine] | 0.137 | 0.018 | 0.015 | < 0.0005 | – |
| COc1cc2ncc(-c3nc(N[C@H]4CNC[C@@H]4F)c(F)cc3F)n2nc1C(C)(C)O [Compound 126, 2-(3-(3,5-difluoro-6-(((3S,4S)-4-fluoropyrrolidin-3-yl)amino)pyridin-2-yl)-7-methoxyimidazo[1,2-b]pyridazin-6-yl)propan-2-ol] | 1.54 | 0.092 | 0.121 | < 0.0005 | – |
| COc1cc2ncc(-c3nc(N[C@@H]4CCCNC4)c(F)cc3F)n2nc1C(C)(C)O [Compound 127, (R)-2-(3-(3,5-difluoro-6-(piperidin-3-ylamino)pyridin-2-yl)-7-methoxyimidazo[1,2-b]pyridazin-6-yl)propan-2-ol] | 6.12 | 0.254 | 0.359 | < 0.0005 | – |
| COc1cc2ncc(-c3cccc(N[C@H]4CNC[C@@H]4C(F)(F)F)n3)n2nc1C1CC1 [Compound 99, 6-(6-cyclopropyl-7-methoxyimidazo[1,2-b]pyridazin-3-yl)-N-((3R,4S)-4-(trifluoromethyl)pyrrolidin-3-yl)pyridin-2-amine] | 0.269 | 0.121 | 0.34 | 0.0006 | – |

Source: patent publication US12534469B2 (CHILDREN'S HOSPITAL MEDICAL CENTER, priority 2020, dated 2026)
